Reference: patent US20150150851A1, “FORMULATION AND DOSING OF HSP90 INHIBITORY COMPOUNDS” (Synta Pharmaceuticals Corp., priority 2010, published 2015)
Values after ≈ are worked out from the molar mass of the structure shown.

Assay: Equilibrium solubility in polysorbate 80 / PEG 300 mixtures (72 hours, HPLC)
Type: physicochemical
Settings: organic solvent or mixture, thermodynamic from solid

CC(C)c1cc(-c2n[nH]c(=O)n2-c2ccc3c(ccn3C)c2)c(O)cc1O [Compound 1, 3-(2,4-dihydroxy-5-isopropyl-phenyl)-4-(1-methyl-indol-5-yl)-5-hydroxy-[1,2,4] triazole]
solubility at 72 h (polysorbate 80 / PEG 300 mixture, 40% PEG 300, 60% polysorbate 80, equilibrated 72 hours): 76.1 mg/mL (≈ 209 mM)
solubility at 72 h (polysorbate 80 / PEG 300 mixture, 45% PEG 300, 55% polysorbate 80, equilibrated 72 hours): 84.7 mg/mL (≈ 232 mM)
solubility at 72 h (polysorbate 80 / PEG 300 mixture, 50% PEG 300, 50% polysorbate 80, equilibrated 72 hours): 96.2 mg/mL (≈ 264 mM)
solubility at 72 h (polysorbate 80 / PEG 300 mixtures, in all three polysorbate 80 / PEG 300 solutions): > 75 mg/mL
